Key:
Format in all cases: in vivo
[1] = test system: barnyardgrass (Echinochloa crus-galli); assay: Test A postemergence, barnyardgrass; conditions: approximately 10 d
Source text: (§1) Seeds of plant species selected from barnyardgrass (Echinochloa crus-galli), kochia (Kochia scoparia), ragweed (common ragweed, Ambrosia elatior), ryegrass, Italian (Italian ryegrass, Lolium multiflorum), foxtail, green (green foxtail, Setaria viridis), and pigweed (Amaranthus retroflexus) were planted into a blend of loam soil and sand and treated preemergence with a directed soil spray using test chemicals formulated in a non-phytotoxic solvent mixture which included a surfactant. At the same time, plants selected from these weed species and also wheat (Triticum aestivum), corn (Zea mays), blackgrass (Alopecurus myosuroides), and galium (catchweed bedstraw, Galium aparine) were planted in pots containing the same blend of loam soil and sand and treated with postemergence applications of test chemicals formulated in the same manner. Plants ranged in height from 2 to 10 cm and were in the one- to two-leaf stage for the postemergence treatment. Treated plants and untreated controls were maintained in a greenhouse for approximately 10 d, after which time all treated plants were compared to untreated controls and visually evaluated for injury. Plant response ratings, summarized in Table A, are based on a 0 to 100 scale where 0 is no effect and 100 is complete control. A dash (-) response means no test result.

[2] = test system: blackgrass (Alopecurus myosuroides); assay: Test A postemergence, blackgrass; conditions: approximately 10 d
Source text: as §1

corn (Zea mays) = assay: Test A postemergence, corn; conditions: approximately 10 d
Source text: as §1

Foxtail, Giant [3] = assay: Test A postemergence, giant foxtail; conditions: approximately 10 d
[4] = test system: galium (catchweed bedstraw, Galium aparine); assay: Test A postemergence, galium; conditions: approximately 10 d
Source text: as §1

kochia (Kochia scoparia) [5] = assay: Test A postemergence, kochia; conditions: approximately 10 d
Source text: as §1

[6] = test system: pigweed (Amaranthus retroflexus); assay: Test A postemergence, pigweed; conditions: approximately 10 d
Source text: as §1

[7] = test system: ragweed (common ragweed, Ambrosia elatior); assay: Test A postemergence, ragweed; conditions: approximately 10 d
Source text: as §1

[8] = test system: ryegrass, Italian (Italian ryegrass, Lolium multiflorum); assay: Test A postemergence, Italian ryegrass; conditions: approximately 10 d
Source text: as §1

[9] = test system: wheat (Triticum aestivum); assay: Test A postemergence, wheat; conditions: approximately 10 d
Source text: as §1

[10] = test system: barnyardgrass (Echinochloa crus-galli); assay: Test A preemergence, barnyardgrass; conditions: approximately 10 d
Source text: as §1

Foxtail, Giant [11] = assay: Test A preemergence, giant foxtail; conditions: approximately 10 d
kochia (Kochia scoparia) [12] = assay: Test A preemergence, kochia; conditions: approximately 10 d
Source text: as §1

[13] = test system: pigweed (Amaranthus retroflexus); assay: Test A preemergence, pigweed; conditions: approximately 10 d
Source text: as §1

[14] = test system: ragweed (common ragweed, Ambrosia elatior); assay: Test A preemergence, ragweed; conditions: approximately 10 d
Source text: as §1

[15] = test system: ryegrass, Italian (Italian ryegrass, Lolium multiflorum); assay: Test A preemergence, Italian ryegrass; conditions: approximately 10 d
Source text: as §1

[16] = test system: barnyardgrass (Echinochloa crus-galli); assay: Test B flooded paddy test, barnyardgrass; conditions: 250 g ai/ha, Flood (paddy water), 13 to 15 d
Protocol: (§2) Plant species in the flooded paddy test selected from rice (Oryza sativa), sedge, umbrella (small-flower umbrella sedge, Cyperus difformis), ducksalad (Heteranthera limosa), and barnyardgrass (Echinochloa crus-galli) were grown to the 2-leaf stage for testing. At time of treatment, test pots were flooded to 3 cm above the soil surface, treated by application of test compounds directly to the paddy water, and then maintained at that water depth for the duration of the test. Treated plants and controls were maintained in a greenhouse for 13 to 15 d, after which time all species were compared to controls and visually evaluated. Plant response ratings, summarized in Table B, are based on a scale of 0 to 100 where 0 is no effect and 100 is complete control. A dash (-) response means no test result.

[17] = test system: ducksalad (Heteranthera limosa); assay: Test B flooded paddy test, ducksalad; conditions: 250 g ai/ha, Flood (paddy water), 13 to 15 d
Protocol: as §2

rice (Oryza sativa) = assay: Test B flooded paddy test, rice; conditions: 250 g ai/ha, Flood (paddy water), 13 to 15 d
Protocol: as §2

[18] = test system: sedge, umbrella (small-flower umbrella sedge, Cyperus difformis); assay: Test B flooded paddy test, umbrella sedge; conditions: 250 g ai/ha, Flood (paddy water), 13 to 15 d
Protocol: as §2

CNN=C1[C@H](C(=O)Nc2cccc(F)c2F)[C@@H](c2ccc(C(F)(F)F)cc2)CN1C (relative stereo) [Compound 3]
0: Plant response rating (0 to 100 scale, 0 is no effect, 100 is complete control) ([6]; 31 g ai/ha) | Plant response rating (0 to 100 scale, 0 is no effect, 100 is complete control) ([7]; 31 g ai/ha) | Plant response rating (0 to 100 scale, 0 is no effect, 100 is complete control) ([8]; 31 g ai/ha) | Plant response rating (0 to 100 scale, 0 is no effect, 100 is complete control) ([9]; 31 g ai/ha) | Plant response rating (0 to 100 scale, 0 is no effect, 100 is complete control) (kochia (Kochia scoparia) [12]; 31 g ai/ha) | Plant response rating (0 to 100 scale, 0 is no effect, 100 is complete control) ([13]; 31 g ai/ha) | Plant response rating (0 to 100 scale, 0 is no effect, 100 is complete control) ([14]; 31 g ai/ha) | Plant response rating (0 to 100 scale, 0 is no effect, 100 is complete control) ([14]; 125 g ai/ha) | Plant response rating (0 to 100 scale, 0 is no effect, 100 is complete control) ([15]; 31 g ai/ha) | Plant response rating (scale of 0 to 100, 0 is no effect, 100 is complete control) (rice (Oryza sativa)) | Plant response rating (scale of 0 to 100, 0 is no effect, 100 is complete control) [18]
50: Plant response rating (0 to 100 scale, 0 is no effect, 100 is complete control) ([7]; 125 g ai/ha)
100: Plant response rating (scale of 0 to 100, 0 is no effect, 100 is complete control) [17]
80: Plant response rating (0 to 100 scale, 0 is no effect, 100 is complete control) ([2]; 125 g ai/ha) | Plant response rating (0 to 100 scale, 0 is no effect, 100 is complete control) ([4]; 125 g ai/ha)
90: Plant response rating (0 to 100 scale, 0 is no effect, 100 is complete control) ([6]; 125 g ai/ha) | Plant response rating (0 to 100 scale, 0 is no effect, 100 is complete control) ([10]; 125 g ai/ha) | Plant response rating (0 to 100 scale, 0 is no effect, 100 is complete control) (Foxtail, Giant [11]; 125 g ai/ha) | Plant response rating (0 to 100 scale, 0 is no effect, 100 is complete control) ([15]; 125 g ai/ha)
60: Plant response rating (0 to 100 scale, 0 is no effect, 100 is complete control) ([1]; 31 g ai/ha) | Plant response rating (0 to 100 scale, 0 is no effect, 100 is complete control) ([4]; 31 g ai/ha) | Plant response rating (0 to 100 scale, 0 is no effect, 100 is complete control) (kochia (Kochia scoparia) [5]; 125 g ai/ha)
20: Plant response rating (0 to 100 scale, 0 is no effect, 100 is complete control) (corn (Zea mays); 31 g ai/ha) | Plant response rating (0 to 100 scale, 0 is no effect, 100 is complete control) (kochia (Kochia scoparia) [5]; 31 g ai/ha)
30: Plant response rating (0 to 100 scale, 0 is no effect, 100 is complete control) (corn (Zea mays); 125 g ai/ha) | Plant response rating (0 to 100 scale, 0 is no effect, 100 is complete control) ([9]; 125 g ai/ha) | Plant response rating (0 to 100 scale, 0 is no effect, 100 is complete control) ([10]; 31 g ai/ha) | Plant response rating (0 to 100 scale, 0 is no effect, 100 is complete control) (kochia (Kochia scoparia) [12]; 125 g ai/ha)
70: Plant response rating (0 to 100 scale, 0 is no effect, 100 is complete control) ([1]; 125 g ai/ha) | Plant response rating (0 to 100 scale, 0 is no effect, 100 is complete control) (Foxtail, Giant [3]; 125 g ai/ha) | Plant response rating (0 to 100 scale, 0 is no effect, 100 is complete control) (Foxtail, Giant [11]; 31 g ai/ha) | Plant response rating (0 to 100 scale, 0 is no effect, 100 is complete control) ([13]; 125 g ai/ha) | Plant response rating (scale of 0 to 100, 0 is no effect, 100 is complete control) [16]
40: Plant response rating (0 to 100 scale, 0 is no effect, 100 is complete control) ([2]; 31 g ai/ha) | Plant response rating (0 to 100 scale, 0 is no effect, 100 is complete control) (Foxtail, Giant [3]; 31 g ai/ha) | Plant response rating (0 to 100 scale, 0 is no effect, 100 is complete control) ([8]; 125 g ai/ha)
